From patent US20150299250A1, “MACROCYCLIC COMPOUNDS AND USES THEREOF” (ADELAIDE RESEARCH & INNOVATION PTY LTD, priority 2012, published 2015)

How the values were obtained:
[1] = target: T1, 20S proteasome T-L activity (Oryctolagus cuniculus, UniProt G1SWK8); assay: In vitro proteasome activity assay, T-L (Ac-RLR-AMC); type: biochemical, rabbit; conditions: purified 20S proteasome; highest concentration tested 25,000 nM
T1 construct: purchased Boston Biochem
T1 sequence (G1SWK8 1-271): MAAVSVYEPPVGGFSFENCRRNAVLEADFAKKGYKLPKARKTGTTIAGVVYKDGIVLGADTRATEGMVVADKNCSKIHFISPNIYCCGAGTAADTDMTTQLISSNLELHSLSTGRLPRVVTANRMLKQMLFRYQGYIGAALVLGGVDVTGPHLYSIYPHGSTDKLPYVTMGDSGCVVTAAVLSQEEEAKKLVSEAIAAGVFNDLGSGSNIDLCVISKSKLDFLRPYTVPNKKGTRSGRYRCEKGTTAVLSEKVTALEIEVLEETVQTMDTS
Procedure: (§1) The assays were performed in vitro using purified 20S proteasome/inhibitor mixtures, with the activity of each subunit of the proteasome assessed upon incubation with its respective target peptide.
(§2) Purified rabbit 20S proteasome and fluorogenic CT-L substrate (Suc-LLVY-AMC) were purchased from Boston Biochem (Cambridge, Mass., USA). The T-L and CP-L fluorogenic substrates (Ac-RLR-AMC and Z-nLPnLD-AMC) were purchased from Enzo Life Sciences (Farmingdale, N.Y., USA). The 20S proteasome was diluted to 0.2 μg/μL in 20S proteasome buffer (50 mM HEPES pH 7.6, 150 mM NaCl and 1 mM DDT) and stored at −80° C. Purified 20S proteasome (8 ng) was pre-incubated with the indicated concentrations of inhibitors for 15 minutes and subsequently added to the AMC-labeled substrate peptide (50 μM) in assay buffer (25 mM HEPES, pH 7.5, 0.5 mM EDTA, 0.05% NP-40, and 0.001% SDS (w/v)) at 37° C. for 2 hours.

[2] = test system: panel of sarcoma cell lines (WE-68, VH-64, STA-ET-1, TC-252); assay: Cell viability assay, panel of four sarcoma cell lines (average); type: cell-based
Procedure: (§3) Cell viability assays were performed as previously described. Briefly, cells were seeded in 96 well microtiterplates at a density of 3×10^4 cells per well in the presence of the indicated chemical. Cells were harvested 48 hours post-treatment, centrifuged at 1,300×g, washed in phosphate-buffered saline (PBS) and stained with 7AAD solution (2 μg/mL) (7-amino-actinomycin-D, Invitrogen, Carlsbad, Calif.) for 10 mins at room temperature. Viable cells were determined with the use of a FACS Calibur flow cytometer (Becton Dickinson Immunocytometry Systems), and analyzed with the use of FLOWJO (Tree Star, Inc) and GraphPad Prism (GraphPad Software Inc).
(§4) WE-68 and VH-64 Ewing's sarcoma cells were kindly supplied by F. van Valen (Department of Orthopaedic Surgery, Westfalische-Wilhelms-University, Germany).TC-252 and STA-ET-1 Ewing's sarcoma cells were kindly provided by G. Hamilton (Department of Surgery, University of Vienna, Austria) or P. Ambros (Children's Cancer Research Institute, St Anna Children's Hospital, Vienna, Austria). Primary human embryonic fibroblasts or primary human osteoblasts were collected from the Women's and Children's Hospital (North Adelaide, South Australia, Australia) or Royal Adelaide Hospital with patient consent. Mouse Embryonic Fibroblasts (MEFs) and its p53-null derivative were kindly supplied by Guillermina Lozano (Department of Genetics, Anderson Cancer Centre, University of Texas, Houston, Tex., USA). WE-68 cell lines were grown in RPMI-1640 media, whilst human embryonic fibroblasts and MEFs were grown in Dulbecco's Modified Eagle's Medium (DMEM). Media was supplemented with 10% FCS, 1% PSG and 10 mM HEPES. All cells were maintained at 37° C. in a humidified atmosphere of 5% CO2.

[3] = target: T2, 20S proteasome chymotrypsin-like (CT-L) activity (Oryctolagus cuniculus, UniProt G1T4Q9); assay: In vitro proteasome activity assay, CT-L (Suc-LLVY-AMC); type: biochemical, rabbit; conditions: purified 20S proteasome
T2 sequence (G1T4Q9 1-263): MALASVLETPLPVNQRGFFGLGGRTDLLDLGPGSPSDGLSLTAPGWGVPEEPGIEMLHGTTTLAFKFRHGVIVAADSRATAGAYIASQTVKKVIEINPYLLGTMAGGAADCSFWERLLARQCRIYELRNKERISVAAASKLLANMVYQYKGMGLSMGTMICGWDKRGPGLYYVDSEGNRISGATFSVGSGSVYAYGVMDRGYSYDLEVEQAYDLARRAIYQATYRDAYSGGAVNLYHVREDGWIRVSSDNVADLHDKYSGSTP
Procedure: as §1, §2

[4] = test system: WE-68 Ewing's sarcoma cells; assay: Cell viability assay (7AAD, 48 hours), WE-68; type: cell-based; conditions: 48 hours exposure; read-out: Cancer cell lines IC50 (μM) WE-68
Procedure: as §3, §4

[5] = test system: TC-252 Ewing's sarcoma cells; assay: Cell viability assay (7AAD, 48 hours), TC-252; type: cell-based; conditions: 48 hours exposure; read-out: Cancer cell lines IC50 (μM) TC-252
Procedure: as §3, §4

[6] = test system: primary human osteoblasts; assay: Cell viability assay (7AAD, 48 hours), normal osteoblasts; type: cell-based; conditions: Osteoblast, 48 hours exposure, read-out: Normal cell lines IC50 (μM) Osteoblasts
Procedure: as §3, §4

[7] = test system: primary human embryonic fibroblasts; assay: Cell viability assay (7AAD, 48 hours), normal fibroblasts; type: cell-based; conditions: Fibroblast, 48 hours exposure, read-out: Normal cell lines IC50 (μM) Fibroblasts
Procedure: as §3, §4

[8] = test system: STA-ET-1 Ewing's sarcoma cells; assay: Cell viability assay (7AAD, 48 hours), STA-ET-1; type: cell-based; conditions: 48 hours exposure; read-out: Cancer cell lines IC50 (μM) STA-ET-1
Procedure: as §3, §4

[9] = test system: VH-64 Ewing's sarcoma cells; assay: Cell viability assay (7AAD, 48 hours), VH-64; type: cell-based; conditions: 48 hours exposure; read-out: Cancer cell lines IC50 (μM) VH-64
Procedure: as §3, §4

[10] = test system: normal cell lines (fibroblasts, osteoblasts); assay: Cell viability assay, normal cell lines (average); type: cell-based; conditions: Homo sapiens; average of fibroblasts and osteoblasts
Procedure: as §3, §4

[11] = target: T3, 20S proteasome CP-L activity (Oryctolagus cuniculus, UniProt A0A5F9DQW2); assay: In vitro proteasome activity assay, CP-L (Z-nLPnLD-AMC); type: biochemical, rabbit; conditions: purified 20S proteasome; highest concentration tested 25,000 nM
T3 construct: Purified rabbit 20S proteasome
T3 sequence (A0A5F9DQW2 1-212): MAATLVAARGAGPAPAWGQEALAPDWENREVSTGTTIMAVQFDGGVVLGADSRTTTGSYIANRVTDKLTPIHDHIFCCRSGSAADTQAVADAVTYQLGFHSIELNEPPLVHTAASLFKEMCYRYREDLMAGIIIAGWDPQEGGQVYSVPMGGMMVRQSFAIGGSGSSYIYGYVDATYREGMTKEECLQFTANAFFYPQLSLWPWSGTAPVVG
Procedure: We initially determined the ability of the novel tripeptide MG132 analogues 1-6 and the macrocycles 3a and 4a to inhibit the three separate protease activities of the 20S proteasome (CT-L, -T-L and CP-L). The assays were performed in vitro using purified 20S proteasome/inhibitor mixtures, with the activity of each subunit of the proteasome assessed upon incubation with its respective target peptide. […] In addition, there is no apparent clear-cut preference for the length of tether (compare compounds 1 to 4), while the introduction of an aryl group at P3 (as in 6) is well tolerated.
as §2, with “hours. Fluorescent substrate cleavage by the 20S proteasome was linear during this incubation timeframe (Supplementary Figure S4. Hydrolysed 7-amino-4-methylcoumarin (AMC) was subsequently detected with the FLUOstar OPTIMA microplatefluorometer at excitation/emission of 390/460 nm. The activity was estimated in relative fluorescence units and half of the maximal inhibitory activity of the proteasome is represented by IC50 values. A minimum of three biological replicates were performed for each data point.” for “hours.”

[12] = target: T4, ovine calpain 1 (o-CAPN1) (Ovis aries, UniProt B2ZA85); assay: Fluorometric calpain assay (BODIPY-Fl casein), ovine calpain 1; type: biochemical
T4 sequence (B2ZA85 1-716): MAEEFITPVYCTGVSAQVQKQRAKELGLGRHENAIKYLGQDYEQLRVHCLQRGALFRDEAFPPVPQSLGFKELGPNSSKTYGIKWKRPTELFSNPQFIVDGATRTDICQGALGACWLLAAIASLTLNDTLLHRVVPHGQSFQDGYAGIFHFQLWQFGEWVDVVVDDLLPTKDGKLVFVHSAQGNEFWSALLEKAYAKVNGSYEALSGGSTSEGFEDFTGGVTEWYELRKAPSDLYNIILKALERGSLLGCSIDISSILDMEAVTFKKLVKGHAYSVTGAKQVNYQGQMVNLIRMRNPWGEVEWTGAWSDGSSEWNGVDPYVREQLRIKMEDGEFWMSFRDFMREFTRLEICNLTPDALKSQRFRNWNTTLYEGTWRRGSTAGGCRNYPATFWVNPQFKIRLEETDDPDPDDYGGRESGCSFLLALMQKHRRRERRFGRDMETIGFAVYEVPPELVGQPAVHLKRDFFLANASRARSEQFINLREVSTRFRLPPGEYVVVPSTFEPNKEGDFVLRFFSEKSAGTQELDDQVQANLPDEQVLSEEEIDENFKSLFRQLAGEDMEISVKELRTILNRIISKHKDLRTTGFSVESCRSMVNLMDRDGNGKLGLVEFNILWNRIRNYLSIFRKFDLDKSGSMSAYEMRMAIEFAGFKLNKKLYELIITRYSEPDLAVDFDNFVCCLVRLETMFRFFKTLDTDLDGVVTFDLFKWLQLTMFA
T4 sequence (A0ACI6PYI8 1-265 partner): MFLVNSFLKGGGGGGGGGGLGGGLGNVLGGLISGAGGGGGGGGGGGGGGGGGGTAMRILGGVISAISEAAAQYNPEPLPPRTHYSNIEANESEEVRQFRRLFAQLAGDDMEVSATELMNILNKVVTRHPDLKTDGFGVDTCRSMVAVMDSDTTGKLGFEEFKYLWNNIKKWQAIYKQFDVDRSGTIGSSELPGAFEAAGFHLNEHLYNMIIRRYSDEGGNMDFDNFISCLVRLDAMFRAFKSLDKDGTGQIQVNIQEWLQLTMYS
Procedure: Fluorometric assays (excitation: 485 nm, emission: 520 nm) with ovine calpains 1 and 2 were done with a (BMG Labtech) Fluostar Optima plate reader at 37.0±0.2° C. in 96-well black (Greiner Bio-one) microassay plates. Calpains 1 and 2, partially purified from sheep lung by hydrophobic interaction and ion-exchange chromatography, were diluted in 20 mM MOPS, pH 7.5, containing 2 mM EGTA, 2 mM EDTA and 0.035% v/v 2-mercaptoethanol to give a linear response over the course of the assay. The substrate BODIPY-F1 casein was prepared as reported. {1} A 0.0005% solution of the substrate in 10 mM MOPS, pH 7.5, 10 mM CaCl2, 0.1 mM NaN3, 0.1% v/v 2-mercaptoethanol was prepared freshly before each experiment. […]
Inhibition studies were performed in the presence of seven different inhibitor concentrations and 1% v/v DMSO in a volume of 200 μL: 50 μl of inhibitor solution was added to a microassay well followed by 50 μl of calpain-containing solution. The reaction was initiated by adding 100 μl of BODIPY-F1 casein solution to each well and progress curves were monitored every 30 s over 570 s. Uninhibited enzyme activity was determined by adding 4% v/v DMSO in water instead of inhibitor solution. […]
The average value of rates obtained in two separate experiments, each in triplicate, was plotted versus the inhibitor concentration and IC50 values were calculated with the following equation: […]

C#CCOc1ccc(C[C@@H](C=O)NC(=O)[C@H](CC(C)C)NC(=O)[C@H](CN=[N+]=[N-])NC(=O)OCc2ccccc2)cc1 [Compound 1]
IC50 [1]: > 25000 nM | IC50 ([2]; average of four sarcoma cell lines, read-out: Average IC50 for cancer cell lines): 5.4 µM | Therapeutic window ([2]; fold change in potency (IC50) against cancer cell line versus normal cell line): ×3.3 | IC50 [3]: 34 nM | IC50 [4]: 4.5 µM | IC50 [5]: 5 µM | IC50 [6]: 23.7 µM | IC50 [7]: 12.2 µM | IC50 [8]: 6.5 µM | IC50 [9]: 5.8 µM | melting point: 71 to 73 °C | IC50 [10]: 18 µM | IC50 [11]: > 25000 nM

CC(C)C[C@@H](C=O)NC(=O)[C@@H]1CCCCCCCCCCCC(=O)c2ccc([nH]2)C(=O)N1 [Compound 1c, (S)—N—((S)-4-methyl-1-oxopentan-2-yl)-2,16-dioxo-3,20-diazabicyclo[15.2.1]icosa-1(19),17-diene-4-carboxamide]
isoform selectivity o-CAPN2 vs. o-CAPN1 [12]: no isoform selectivity

CC(C)CC(C=O)NC(=O)C1CCCCOc2ccc(cc2)CCC(=O)c2ccc([nH]2)C(=O)N1 (stereo not drawn) [Compound 2c]
isoform selectivity o-CAPN2 vs. o-CAPN1 [12]: no isoform selectivity
